{"source": "patent US6518243B1", "about": "“Desleucyl glycopeptide antibiotics and methods of making same” (Trustees of Princeton University, priority 1999, dated 2003)", "data": [{"system": "E. faecalis (CL 4877)", "assay": "Zone of inhibition screen, 96 well agar array format", "format": "cell-based", "set-up": "scale not given here", "settings": "zone of inhibition relative to 1 mg/ml p-chlorobiphenylvancomycin", "experimental": "(§1) The antibacterial activity of each of the compounds against the bacterial strains E. faceium (ATCC 49624), S. epidermidis (ATCC 12228), S. aureus (ATCC 29213), E. faecalis (CL 4877) and E. faecalis (ATCC 292121) was tested. Each of the compounds was screened in a 96 will agar array format.", "values": [{"compound": "CCSCC(=O)NC1C(=O)NC(CC(N)=O)C(=O)NC2C(=O)NC3C(=O)NC(C(=O)NC(C(=O)O)c4cc(O)cc(O)c4-c4cc3ccc4O)C(O)c3ccc(c(Cl)c3)Oc3cc2cc(c3OC2OC(CO)C(O)C(O)C2OC2CC(C)(NCc3ccc(-c4ccc(Cl)cc4)cc3)C(O)C(C)O2)Oc2ccc(cc2Cl)C1O", "note": "(stereo not drawn) [Compound 225]", "zone score, E. faecalis CL 4877": 2}, {"compound": "CC1OC(OC2C(Oc3c4cc5cc3Oc3ccc(cc3Cl)C(O)C3NC(=O)C(NC(=O)C5NC(=O)C(CC(N)=O)NC(=O)C(NC(=O)c5cccnc5O)C(O)c5ccc(c(Cl)c5)O4)c4ccc(O)c(c4)-c4c(O)cc(O)cc4C(C(=O)O)NC3=O)OC(CO)C(O)C2O)CC(C)(NCc2ccc(-c3ccc(Cl)cc3)cc2)C1O", "note": "(stereo not drawn) [Compound 241]", "zone score, E. faecalis CL 4877": 2}, {"compound": "CCC(=O)C(=O)NC1C(=O)NC(CC(N)=O)C(=O)NC2C(=O)NC3C(=O)NC(C(=O)NC(C(=O)O)c4cc(O)cc(O)c4-c4cc3ccc4O)C(O)c3ccc(c(Cl)c3)Oc3cc2cc(c3OC2OC(CO)C(O)C(O)C2OC2CC(C)(NCc3ccc(-c4ccc(Cl)cc4)cc3)C(O)C(C)O2)Oc2ccc(cc2Cl)C1O", "note": "(stereo not drawn) [Compound 242]", "zone score, E. faecalis CL 4877": 2}, {"compound": "CC1OC(OC2C(Oc3c4cc5cc3Oc3ccc(cc3Cl)C(O)C3NC(=O)C(NC(=O)C5NC(=O)C(CC(N)=O)NC(=O)C(NC(=O)CC(F)(F)F)C(O)c5ccc(c(Cl)c5)O4)c4ccc(O)c(c4)-c4c(O)cc(O)cc4C(C(=O)O)NC3=O)OC(CO)C(O)C2O)CC(C)(NCc2ccc(-c3ccc(Cl)cc3)cc2)C1O", "note": "(stereo not drawn) [Compound 249]", "zone score, E. faecalis CL 4877": 2}, {"compound": "C[C@H]1O[C@H](O[C@H]2[C@H](Oc3c4cc5cc3Oc3ccc(cc3Cl)[C@@H](O)[C@@H](NC(=O)/C=C/c3ccc(Cl)c(Cl)c3)C(=O)N[C@@H](CC(N)=O)C(=O)N[C@H]5C(=O)N[C@H]3C(=O)N[C@H](C(=O)N[C@@H](C(=O)O)c5cc(O)cc(O)c5-c5cc3ccc5O)[C@H](O)c3ccc(c(Cl)c3)O4)O[C@H](CO)[C@@H](O)[C@@H]2O)C[C@@](C)(NCc2ccc(-c3ccc(Cl)cc3)cc2)[C@H]1O", "note": "[Compound 251]", "zone score, E. faecalis CL 4877": 2}, {"compound": "CC1OC(OC2C(Oc3c4cc5cc3Oc3ccc(cc3Cl)C(O)C3NC(=O)C(NC(=O)C5NC(=O)C(CC(N)=O)NC(=O)C(NC(=O)c5ccc(N)cc5)C(O)c5ccc(c(Cl)c5)O4)c4ccc(O)c(c4)-c4c(O)cc(O)cc4C(C(=O)O)NC3=O)OC(CO)C(O)C2O)CC(C)(NCc2ccc(-c3ccc(Cl)cc3)cc2)C1O", "note": "(stereo not drawn) [Compound 268]", "zone score, E. faecalis CL 4877": 2}, {"compound": "CC1OC(OC2C(Oc3c4cc5cc3Oc3ccc(cc3Cl)C(O)C3NC(=O)C(NC(=O)C5NC(=O)C(CC(N)=O)NC(=O)C(NC(=O)c5cccnc5)C(O)c5ccc(c(Cl)c5)O4)c4ccc(O)c(c4)-c4c(O)cc(O)cc4C(C(=O)O)NC3=O)OC(CO)C(O)C2O)CC(C)(NCc2ccc(-c3ccc(Cl)cc3)cc2)C1O", "note": "(stereo not drawn) [Compound 307]", "zone score, E. faecalis CL 4877": 2}, {"compound": "CC1OC(OC2C(Oc3c4cc5cc3Oc3ccc(cc3Cl)C(O)C3NC(=O)C(NC(=O)C5NC(=O)C(CC(N)=O)NC(=O)C(NC(=O)c5ccccc5O)C(O)c5ccc(c(Cl)c5)O4)c4ccc(O)c(c4)-c4c(O)cc(O)cc4C(C(=O)O)NC3=O)OC(CO)C(O)C2O)CC(C)(NCc2ccc(-c3ccc(Cl)cc3)cc2)C1O", "note": "(stereo not drawn) [Compound 315]", "zone score, E. faecalis CL 4877": 2}, {"compound": "CC1OC(OC2C(Oc3c4cc5cc3Oc3ccc(cc3Cl)C(O)C3NC(=O)C(NC(=O)C5NC(=O)C(CC(N)=O)NC(=O)C(NC(=O)C5CCOC5)C(O)c5ccc(c(Cl)c5)O4)c4ccc(O)c(c4)-c4c(O)cc(O)cc4C(C(=O)O)NC3=O)OC(CO)C(O)C2O)CC(C)(NCc2ccc(-c3ccc(Cl)cc3)cc2)C1O", "note": "(stereo not drawn) [Compound 317]", "zone score, E. faecalis CL 4877": 2}]}, {"system": "S. aureus (ATCC 29213)", "assay": "Zone of inhibition screen, 96 well agar array format", "format": "cell-based", "set-up": "scale not given here", "settings": "zone of inhibition relative to 1 mg/ml p-chlorobiphenylvancomycin", "experimental": "as §1", "values": [{"compound": "COC(=O)C1=C(C)NC(=O)C1CC(=O)NC1C(=O)NC(CC(N)=O)C(=O)NC2C(=O)NC3C(=O)NC(C(=O)NC(C(=O)O)c4cc(O)cc(O)c4-c4cc3ccc4O)C(O)c3ccc(c(Cl)c3)Oc3cc2cc(c3OC2OC(CO)C(O)C(O)C2OC2CC(C)(NCc3ccc(-c4ccc(Cl)cc4)cc3)C(O)C(C)O2)Oc2ccc(cc2Cl)C1O", "note": "(mixture of isomers) [Compound 299]", "zone score, S. aureus ATCC 29213": 2}]}, {"system": "S. aureus (ATCC 29213)", "assay": "Zone of inhibition screen, 96 well agar array format", "format": "cell-based", "set-up": "scale not given here", "settings": "zone of inhibition relative to 1 mg/ml stock solution of p-chlorobiphenylvancomycin", "experimental": "as §1", "values": [{"compound": "CC1OC(OC2C(Oc3c4cc5cc3Oc3ccc(cc3Cl)C(O)C(NC(=O)C3OC(O)C(O)C3O)C(=O)NC(CC(N)=O)C(=O)NC5C(=O)NC3C(=O)NC(C(=O)NC(C(=O)O)c5cc(O)cc(O)c5-c5cc3ccc5O)C(O)c3ccc(c(Cl)c3)O4)OC(CO)C(O)C2O)CC(C)(NCc2ccc(-c3ccc(Cl)cc3)cc2)C1O", "note": "(mixture of isomers) [Compound 128]", "zone score, S. aureus ATCC 29213": 2}, {"compound": "C[C@H]1O[C@H](O[C@H]2[C@H](Oc3c4cc5cc3Oc3ccc(cc3Cl)[C@@H](O)[C@@H](NC(=O)[C@@H](N)Cc3ccc(OC(C)(C)C)cc3)C(=O)N[C@@H](CC(N)=O)C(=O)N[C@H]5C(=O)N[C@H]3C(=O)N[C@H](C(=O)N[C@@H](C(=O)O)c5cc(O)cc(O)c5-c5cc3ccc5O)[C@H](O)c3ccc(c(Cl)c3)O4)O[C@H](CO)[C@@H](O)[C@@H]2O)C[C@@](C)(NCc2ccc(-c3ccc(Cl)cc3)cc2)[C@H]1O", "note": "[Compound 19]", "zone score, S. aureus ATCC 29213": 2}, {"compound": "CC1OC(OC2C(Oc3c4cc5cc3Oc3ccc(cc3Cl)C(O)C3NC(=O)C(NC(=O)C5NC(=O)C(CC(N)=O)NC(=O)C(NC(=O)c5[nH]c(=O)[nH]c(=O)c5N)C(O)c5ccc(c(Cl)c5)O4)c4ccc(O)c(c4)-c4c(O)cc(O)cc4C(C(=O)O)NC3=O)OC(CO)C(O)C2O)CC(C)(NCc2ccc(-c3ccc(Cl)cc3)cc2)C1O", "note": "(stereo not drawn) [Compound 109]", "zone score, S. aureus ATCC 29213": 2}, {"compound": "CC(=O)NC(C)C(=O)NC1C(=O)NC(CC(N)=O)C(=O)NC2C(=O)NC3C(=O)NC(C(=O)NC(C(=O)O)c4cc(O)cc(O)c4-c4cc3ccc4O)C(O)c3ccc(c(Cl)c3)Oc3cc2cc(c3OC2OC(CO)C(O)C(O)C2OC2CC(C)(NCc3ccc(-c4ccc(Cl)cc4)cc3)C(O)C(C)O2)Oc2ccc(cc2Cl)C1O", "note": "(stereo not drawn) [Compound 112]", "zone score, S. aureus ATCC 29213": 2}, {"compound": "CC(=O)NCCCCC(NC(C)=O)C(=O)NC1C(=O)NC(CC(N)=O)C(=O)NC2C(=O)NC3C(=O)NC(C(=O)NC(C(=O)O)c4cc(O)cc(O)c4-c4cc3ccc4O)C(O)c3ccc(c(Cl)c3)Oc3cc2cc(c3OC2OC(CO)C(O)C(O)C2OC2CC(C)(NCc3ccc(-c4ccc(Cl)cc4)cc3)C(O)C(C)O2)Oc2ccc(cc2Cl)C1O", "note": "(stereo not drawn) [Compound 123]", "zone score, S. aureus ATCC 29213": 2}, {"compound": "CC(=O)NC(CC[S+](C)[O-])C(=O)NC1C(=O)NC(CC(N)=O)C(=O)NC2C(=O)NC3C(=O)NC(C(=O)NC(C(=O)O)c4cc(O)cc(O)c4-c4cc3ccc4O)C(O)c3ccc(c(Cl)c3)Oc3cc2cc(c3OC2OC(CO)C(O)C(O)C2OC2CC(C)(NCc3ccc(-c4ccc(Cl)cc4)cc3)C(O)C(C)O2)Oc2ccc(cc2Cl)C1O", "note": "(stereo not drawn) [Compound 124]", "zone score, S. aureus ATCC 29213": 2}, {"compound": "CC1OC(OC2C(Oc3c4cc5cc3Oc3ccc(cc3Cl)C(O)C3NC(=O)C(NC(=O)C5NC(=O)C(CC(N)=O)NC(=O)C(NC(=O)C(CCS(C)(=O)=O)NC(=O)OC(C)(C)C)C(O)c5ccc(c(Cl)c5)O4)c4ccc(O)c(c4)-c4c(O)cc(O)cc4C(C(=O)O)NC3=O)OC(CO)C(O)C2O)CC(C)(NCc2ccc(-c3ccc(Cl)cc3)cc2)C1O", "note": "(stereo not drawn) [Compound 143]", "zone score, S. aureus ATCC 29213": 2}, {"compound": "CC1OC(OC2C(Oc3c4cc5cc3Oc3ccc(cc3Cl)[C@@H](O)[C@@H](NC(=O)CC3NC(=O)NC3=O)C(=O)N[C@@H](CC(N)=O)C(=O)N[C@H]5C(=O)NC3C(=O)N[C@H](C(=O)N[C@@H](C(=O)O)c5cc(O)cc(O)c5-c5cc3ccc5O)[C@H](O)c3ccc(c(Cl)c3)O4)OC(CO)C(O)C2O)CC(C)(NCc2ccc(-c3ccc(Cl)cc3)cc2)C1O", "note": "(stereo partly drawn) [Compound 163]", "zone score, S. aureus ATCC 29213": 2}]}]}
